Experimental data taken from patent publication US5358955A, “Aryl and heteroarylmethoxyphenyl inhibitors of leukotriene biosynthesis” (Abbott Laboratories, priority 1993, dated 1994).

Tested on: Stimulated LTB4 Formation in Human Polymorphonuclear Leukocytes
Test: Inhibition of calcium ionophore-stimulated LTB4 formation in human polymorphonuclear leukocytes (PMNL)
Assay type: cell-based
Conditions: for IC50: calcium ionophore 8.3 μM.3 μM, 15 min preincubation, 37° C, read-out: IC50, In Vitro Inhibitory Potencies Against Stimulated LTB4 Formation in Human Polymorphonuclear Leukocytes
Protocol: Inhibition of leukotriene biosynthesis was evaluated in an assay involving calcium ionophore-induced LTB4 expressed in human polymorphornuclear leukocytes (PMNL). Human PMNL isolated from heparinized (20 USP units/mL) venous blood (25 mL) obtained from healthy volunteers was layered over an equal volume of Ficoll-Hypaque Mono-Poly Resolving Medium (ICN Flow, Costa Mesa, CA) and centrifugated at 400 × g for 40 min at 20° C. The PMNL was collected, erythrocytes lysed and washed 2× and suspended at 1.0×10^7 cells/mL in Earle's balanced salt solution with 17 mM Earle's HEPES. Aliquots of the cell suspension were preincubated with test compounds dissolved in DMSO (final concentration <2%) for 15 min. and stimulated with calcium ionophore (final concentration 8.3 μM) for 10 min. at 37° C. Incubations were stopped with the addition of two volumes of ice-cold methanol followed by centrifuging the cell suspensions at 4° C. for 10 min at 450×g. The amount of LTB4 in the methanol extract was analyzed by enzyme-linked linked immunoassay or by HPLC analysis.

Q: For `CN(O)C(=O)CSC(CCCc1ccc(Cl)cc1)c1ccc(OCc2ccc3ccccc3n2)cc1` (stereo not drawn) [Example 1, {[4-(4-Chlorophenyl)-1-(4-[2-quinolinylmethoxy]phenyl)butyl]thio}acetic acid (N-hydroxy-N-methyl)amide], which “% Inhibition, Stimulated LTB4 Formation in Human Polymorphonuclear Leukocytes” value (at ~0.095 μmol, calcium ionophore 8.3 μM) is on record?
A: 63%

Q: With `CN(O)C(=O)CON=C(CCCc1ccc(Cl)cc1)c1ccc(OCc2ccc3ccccc3n2)cc1` [Example 2, [(4-(4-Chlorophenyl)-1-(4-(2-quinolinylmethoxy)phenyl)butyl)oximino]acetic acid (N-hydroxy-N-methyl)amide] as the compound, how does the IC50 read?
A: 66 nM

Q: With `CN(O)C(=O)C(CC1CCCCC1)c1ccc(OCc2ccc3ccccc3n2)cc1` (stereo not drawn) [Example 3, 3-Cyclohexyl-2-[4-(quinolin-2-yl-methoxy)phenyl]propionic acid (N-hydroxy-N-methyl)amide] as the compound, how does the IC50 read?
A: 64 nM

Q: For `CN(O)C(=O)C=NOC(CCCc1ccc(Cl)cc1)c1ccc(OCc2ccc3ccccc3n2)cc1` (stereo not drawn) [Example 6, {[4-(4-Chlorophenyl)-1-(4-[2-quinolinylmethoxy]phenyl)butyl]iminoxy}acetic acid N-hydroxy-N-methyl-amide], which IC50 is on record?
A: 132 nM

Q: `CN(O)C(=O)C(c1ccc(OCc2ccc3ccccc3n2)cc1)C1CCCCC1` (stereo not drawn) [Example 8, 2-Cyclohexyl-2-[4-(quinolin-2-yl-methoxy)phenyl]acetic acid N-hydroxy-N-methyl-amide] was tested. Which IC50 did it give?
A: 33 nM

Q: How did the IC50 turn out when `CNOC(=O)C(CC1CCCCC1)c1ccc(OCc2ccc3ccccc3n2)cc1` (stereo not drawn) [Example 13, N-Methyl-O-{3-cyclohexyl-2-[4-(quinolin-2-yl-methoxy)phenyl]-propionyl}-hydroxylamine] was run?
A: 68 nM

Q: For `CNOC(=O)C(CC1CCCCC1)c1ccc(OCc2ccccn2)cc1` (stereo not drawn) [Example 14, N-Methyl-O-{3-cyclohexyl-2-[4-(pyrid-2-yl-methoxy)phenyl]propionyl}-hydroxylamine], which IC50 is on record?
A: 1650 nM

Q: For `CNOC(=O)C(c1ccc(OCc2ccc3ccccc3n2)cc1)C1CCCCC1` (stereo not drawn) [Example 15, N-Methyl-O-{2-cyclohexyl-2-[4-(quinolin-2-yl-methoxy)phenyl]-acetyl}-hydroxylamine], which IC50 is on record?
A: 95 nM

Q: Which IC50 does the source give for `CN(C)OC(=O)C(CC1CCCCC1)c1ccc(OCc2ccc3ccccc3n2)cc1` (stereo not drawn) [Example 17] here?
A: 45 nM
